Like-named read-outs stand apart in the source and are kept apart here.
Columns and labels:
[1] = Thermal properties by DSC and TGA at a scanning rate of 10° C./min (thermal weight-loss temperature Ti); format: physicochemical; conditions: for Ti (thermal weight-loss temperature), second number of the Tm/Ti cell: intercept of leading edge of weight loss with baseline
Method: As results of measurement of thermal properties of the quinolinium derivative according to the present invention using differential scanning calorimetry (DSC) and thermogravimetric analysis (TGA) at a scanning rate of 10° C./min, the thermal weight-loss temperature Ti was estimated as a temperature at the intercept of the leading edge of the weight loss by the baseline of TGA scans.

[2] = Solubility in methanol
Source text: Meanwhile, the solubility in methanol of the quinolinium derivative according to the present invention is illustrated in (a) of FIG. 6. […] The solid line in the graph is based on the known Van't Hoff thermodynamic equilibrium equation using an ideal solution.

Molecule | Ti (thermal weight-loss temperature), second number of the Tm/Ti cell ([1]; TGA, 10° C./min) | thermal stability of the crystal (FIG. 2) ([1]; TGA, 10° C./min) [°C] | solubility in methanol [2] [g/100 g methanol] | thermal stability of the crystal (FIG. 2) [1] | solubility in methanol as a reaction solvent ([2]; methanol, temperature not given) [g/100 g methanol]
COc1cc(C=Cc2ccc3ccccc3[n+]2C)ccc1O.Cc1ccc(S(=O)(=O)[O-])cc1 [HMQ-T, 2-(4-hydroxy-3-methoxystyryl)-1-methylquinolinium 4-methylbenzenesulfonate] | 273/297 °C | – | 0.89 | exceeding 290 °C | –
COc1cc(C=Cc2ccc3ccccc3[n+]2C)ccc1O.[I+] [HMQ-I, 2-(4-hydroxy-3-methoxystyryl)-1-methylquinolinium iodine] | – | – | – | – | 0.14

Now from value to molecule, other results behind:

Ti (thermal weight-loss temperature), second number of the Tm/Ti cell ([1]; TGA, 10° C./min) | thermal stability of the crystal (FIG. 2) ([1]; TGA, 10° C./min) [°C] | Molecule | solubility in methanol [2] [g/100 g methanol] | thermal stability of the crystal (FIG. 2) [1] | solubility in methanol as a reaction solvent ([2]; methanol, temperature not given) [g/100 g methanol]
265/291 °C | – | 2-(4-hydroxy-3-methoxystyryl)-1-methylquinolinium 4-methoxylbenzenesulfonate [HMQ-MBS] | 0.56 | – | –
250/250 °C | 260 | CN(C)c1ccc(C=Cc2cc[n+](C)cc2)cc1.Cc1ccc(S(=O)(=O)[O-])cc1 [DAST, N,N-dimethylamino-N′-methylstilbazolium 4-methylbenzenesulfonate, reference compound] | – | – | –
212/325 °C | – | CC1(C)CC(C=Cc2ccc(O)cc2)=CC(=C(C#N)C#N)C1 [OH1, 2-(3-(4-hydroxystyryl)-5,5-dimethylcyclohex-2-enylidene)malononitrile, reference compound] | – | – | –
